Assay results from the NIST ThermoML archive (doi:10.1016/j.jct.2015.02.002).
± gives the expanded uncertainty stated by the source.

Conditions: Crystal; visual observation

Normal melting temperature: 130.00 ± 0.5 °C
Structure (SMILES): O=C(O)CC(O)C(=O)O (stereo unspecified) [hydroxybutanedioic acid]
